Measurements reported in patent US7226761B2, “Manufacture of five-carbon sugars and sugar alcohols” (Danisco Sweeteners Oy, priority 1992, dated 2007).
Like-named read-outs stand apart in the source and are kept apart here.

Tests used:
[1] = system: TKL1,2 deficient strain harboring the XDH encoding gene from P. stipitis on a multi-copy plasmid (H1057); details: for Polyols from glucose consumed in %: 25 μM IA
Procedure: TKL1,2 deficient strain H1055 carrying the pAOS67 multi-copy plasmid harboring the XDH encoding gene from P. stipitis (H1057) was cultivated in the presence of 25 μM IA (Fluka Chemie AG, Switzerland). The growth medium was SCD lacking histidine for plasmid selection and 7.65 g/l KNO3. Samples were withdrawn at the indicated time points, the OD600 measured, cells removed by centrifugation, and the growth medium samples were assayed for polyols by the Boehringer Mannheim D-sorbitol/xylitol kit and for glucose by the Boehringer Mannheim GOD-Perid kit.

DOG1 = molecular target: T1, DOG1 (Saccharomyces cerevisiae, UniProt P38774); test: Specificity of DOG1 towards sugar phosphates in yeast cell extracts (phosphate release); assay type: biochemical, S. cerevisiae; details: 20 mM substrate; cell extract of H1514; relative to 2-deoxyglucose-6-P as 100%
T1 construct: expressed in transfected cells; host or cells: S. cerevisiae H1104 (W303-1B) transformed with plasmid B1020 (YEplac195, ADH1 promoter-DOG1-ADH1 terminator) = strain H1514; crude cell extract
T1 sequence (P38774 1-246): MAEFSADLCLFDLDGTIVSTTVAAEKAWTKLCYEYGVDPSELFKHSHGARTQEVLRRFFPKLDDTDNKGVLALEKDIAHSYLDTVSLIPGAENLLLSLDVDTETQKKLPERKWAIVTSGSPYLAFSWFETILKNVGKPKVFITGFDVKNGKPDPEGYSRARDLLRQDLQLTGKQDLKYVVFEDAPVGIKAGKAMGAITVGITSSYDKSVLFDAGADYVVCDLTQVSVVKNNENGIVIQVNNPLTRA
Procedure: The specificity of DOG1 towards xylulose-5-P, ribulose-5-P, ribose-5-P and 2-deoxyglucose-6-P was determined using 20 mM substrate concentrations. Yeast cell extracts were prepared as described in example 15, except that 50 mM imidazole-HCl, 10 mM MgCl2 buffer, pH 6.0 was used. 10 μl of extract and 210 μl of substrate (20 mM) in the same buffer was incubated for 30 min, 30° C. The reaction was stopped with final 2% of TCA and the phosphate released was measured using ammonium molybdate (15 mM), zinc acetate (100 mM), pH 5.0 as the reagent. The formation of molybdenum blue was measured at 350 nm, and quantified by phosphate standards (Sanz, P. et al., Yeast 10:1195–1202 (1994); Bencini, D. A. et al., Anal. Biochem. 132:254–258 (1983)).

[2] = Stereospecificity of D-xylulose 5-phosphate reduction, products dephosphorylated and analyzed by HPLC; assay type: biochemical; details: 10 mM xylulose 5-phosphate, 10 mM NADH, pH 7.0, 37° C.
Procedure: The stereospecificity of xylulose-phosphate reduction by the B. halodurans XPDH was verified by the following procedure. The reaction between D-xylulose 5-phosphate and NADH was conducted at 37° C. for several hours under the following conditions: 100 mM Tris-HC buffer, pH 7.0, 10 mM xylulose 5-phosphate, 10 mM NADH, […] the enzyme lysate. The reaction products were dephosphorylated with alkaline phosphatase and analyzed by HPLC. […] It should be noted that among the highest-scoring four homologues of the L. rhamnosus XPDH, the enzyme from B. holodurans is the least homologous. This can be interpreted as an indication that the other three homologues (SEQ ID NO:51, 52 and 53) are most probably also xylitol-phosphate dehydrogenases.
The stereospecificity of D-xylulose 5-phosphate reduction by the E. avium arabitol-phosphate dehydrogenase was verified by the following procedure. The reaction between D-xylulose 5-phosphate and NADH was conducted at 37° C. for several hours under the following conditions: 100 mM Tris-HCl buffer, pH 7.0, 10 mM xylulose 5-phosphate, 10 mM NADH, 1U of the enzyme. The reaction products were dephosphorylated with alkaline phosphatase and analyzed by HPLC. […] There are no other arabitol-phosphate dehydrogenases described in the art.
Both arabitol-phosphate dehydrogenase genes were expressed using the same tools and methods as those used for the expression of xylitol-phosphate dehydrogenases (Example 26). Briefly, the coding regions of the two arabitol-phosphate dehydrogenase genes were amplified using the chromosomal DNA of the microorganism from which the enzyme was isolated and the appropriate PCR primers. In the case of E. avium the primers were oAPDH 51 […] SEQ ID NO: 71) and the anti-sense primer oAPDH 31 […]) SEQ ID NO: 72. For B. halodurans, the sense primer was oBHDH 5 ([…], SEQ ID NO: 73) and the anti-sense primer was oBHDH 3 ([…], SEQ ID NO: 74). […] The stereospecificity of D-xylulose 5-phosphate reduction by the previously unknown enzyme from B. halodurans was determined as described in Example 30.

[3] = Xylulose 5-phosphate reductase (XPDH/APDH) activity assay with NADH; assay type: biochemical; details: cell extract of transformed B. subtilis BD170; xylulose 5-phosphate usually 5 mM
Procedure: The strain BD 170 [pGTK24(MXD2)] as well as untransformed strain BD 170 was grown overnight on either LB or LB, containing 10% glucose, cell extracts were prepared and the XDH activity measured. The assay conditions for measuring XDH activity were: 30° C., 50 mM Tris-HCI, pH 7.0, 0.2 mM NADH and 10 mM D-xylulose. Changes of absorption at 340 nm were recorded; one unit of activity was defined as the amount of enzyme that catalyzed the reduction of one […] of substrate per minute under the conditions of assay (assuming the differential absorption coefficient NADH/NAD^+ to be equal to […]). The following levels of XDH activity were measured in the strain BD170 [pGTK24(MXD2)] grown on the two media: LB—0.5 U/mgproteins, LB-glucose 0.05–0.15 U/mgprotein. Thus, glucose appeared to repress the activity of the aldolase promoter 3–10 fold. No XDH activity could be detected in the strain BD170 grown on either of the two media.
B. subtilis strain BD170 was transformed with pGTK74(LRXPDH) and pGTK74(BHDH2). The transformants were grown overnight in LB containing 25 mg/liter kanamycin, cell extract were prepared by sonication and the activity of XPDH activity was measured. The conditions for measuring the XPDH activity were similar to those used for measuring the xylitol dehydrogenase activity except that xylulose 5-phosphate was used as the substrate (usually at 5 mM concentration) instead of xylulose. The activities were approximately 0.3 U/mg protein for the XPDH from L. rhamnosus and about 0.5 U/mg protein for B. halodurans enzyme.
Enterococcus avium ATCC 35655 was cultivated at 30° C. in 5 liters of a medium containing: peptone—10 g/l, yeast extract—5 g/l, beef extract 10 g/l, K2HPO4 2 g/l, NaCl—5 g/l, MgSO4—0.02 g/l, MnCl2—0.05 g/l, ammonium citrate 2 g/l, Tween 20—1.1 ml/l, xylitol—20g/l, pH 6.5. […]

Molecule: O=C(O)CI [iodacetate, iodoacetate]
- Polyols from glucose consumed in % ([1]; 28 h): 0.45%
- Polyols from glucose consumed in % ([1]; 45 h): 0.74%
- Polyols from glucose consumed in % ([1]; 52 h): 0.57%
- Polyols from glucose consumed in % ([1]; 69 h): 0.72%
- Polyols from glucose consumed in % ([1]; 77 h): 0.87%
- Polyols from glucose consumed in % ([1]; 93 h): 0.93%
- Polyols from glucose consumed in % ([1]; 100 h): 1.13%
- glucose consumed metabolised to polyols (xylitol+part of ribitol) ([1]; in the presence of iodoacetate): 1.2%
- increase in polyol production ([1]; in the presence of iodoacetate vs without): about 30%

Molecule: O=C(CO)[C@@H](O)[C@H](O)COP(=O)(O)O [xylulose-5-P, Xylulose-5-phosphate]
- Relative activity (20 mM) (DOG1): 15%

B1: enzyme from B. halodurans: D-arabitol-phosphate dehydrogenase from B. halodurans, SEQ ID NO:70, expressed from pGTK74(BHDH) (protein)
chain: MKALVKTQHGTGHFAVQEKPEPTPGKHQVKIKVKYTGVCGSDIHTYEGHYPVAAPVTLGHEFSGEIVELGEGVTGFNVGDRVTSETTYSICGKCSYCTSGDYNLCSHRKGLGNQQDGSFAKYVIARQESLHHLPAGVDDRSAAMTEPLACTHHAIAKTSINKGDLVVVTGPGPIGLLAAQVAKSHGGTVIITGLSNDQVRLKKAKEVGIDYAIDTQEVDIKELVSELTDGYGADVVLECSGAVPAAKQGIDLLRKKGQYAQVGLFAQPEIQFNFEKIIQKEISVVGSRSQKPADWEPALSLLNEKKVNAKTLVTHEYTISEWDKAYHAIKSGEAIKVLLTPID
modifications: Bacillus halodurans (deduced sequence)
- products found in the reaction mixture / stereospecificity [2]: this enzyme is indeed a D-arabitol-phosphate dehydrogenase

B2: XPDH from L. rhamnosus: xylitol-phosphate dehydrogenase from Lactobacillus rhamnosus, SEQ ID NO:49 (protein, listed as Lactobacillus rhamnosus)
chain: MKASMLEDLNKFSVKEIDIPSPKKDEVVVKVMAAGTCGSDSHKMISGWKYGYPAVMGHEFSGIVTQLGENVSNVSVGQHVAVAPFIPCFKCHYCQIGLFQMCENYSMLGQQKFGGFEQYVSVPARNVLDIGKMSFEEGALIEPMAVAAHAVMGIKPELGDTVAVFGLGTVGDLVVRLLISSGATNVIGIDIDDQKLEKGLDEGCTHVINSAKESLEEKIMEYTDGLGVDISMECAGSKITEEQTLLVTKRRGKVGFVGIAYSDVLLHQKAFENIFRHELTVTGFWNSYSAPFPGREWTNSIQLVNRGRIKIKDLITHRFELEDMQKAFNMITTRSESFNKVMFFPNGIN
- XPDH activity [3]: approximately 0.3 U/mg protein

B3: B. halodurans enzyme: xylitol-phosphate dehydrogenase from B. halodurans, SEQ ID NO:50, expressed from pGTK74(BHDH2) (protein)
chain: MKALNLYGIQDLRFEETPAPSIEHDDDIIIKVKAVGICGSDLSRYKKLGPYVPGMTFGHEFAGEVVKIGRSVTGFSIGDRVAACPTYTCGQCRYCQLGEPTRCERLSVIGARHPGAYAEYVKLPAKHVIPLPNVVNYDEAALIEPASVVAHGFYRTNIKPGASVAIMGVGSIGLLAVQWAKIFGATTVFAIDIDEQKLNVANQLGADVLISSLQRPAHKQILEYTNGIGVDVAVESAGTPSTSAQVFALPKKGGEVVFLGIPYADVQIERFYFEKIVRNELHVYGSWNALSSPFPGKEWATTIHYMSSGQLNVAPMISYRLPLAKGPETFQQIAKGELKPTKVLFYPEKLSERK
modifications: Bacillus halodurans
- XPDH activity [3]: about 0.5 U/mg protein
- products found in the reaction mixture / stereospecificity [2]: Only xylitol and xylulose (corresponding to the unreacted xylulose 5-phosphate) but no arabitol were found
